Data on one cell line can be found in the supplement of paper PMC10307832.

Test in all cases: relative viability (nuclei count vs DMSO), 5 days (fraction); higher = more cells survive
Compound in the assay “GW-2580 + Pictilisib”: COC1=CC=C(C=C1)COC2=C(C=C(C=C2)CC3=CN=C(N=C3N)N)OC [GW-2580] + CS(=O)(=O)N1CCN(Cc2cc3nc(-c4cccc5[nH]ncc45)nc(N4CCOCC4)c3s2)CC1 [Pictilisib] (partner 1 µM)
Put shortly: (§1)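 A single step with final 0.05% Triton X-100, 1% formaldehyde and 1 ug/ml Hoechst fixed the cells and stained nuclei 5 days after treatment. Lung cancer cell lines in 1536-well plates had been treated by pin tool the day after seeding with one drug alone or a fixed anchor-drug dose plus five library-drug doses (not always all listed) in √10 steps, and nuclei were counted on 4× images. Relative viability is the ratio of nuclei in treated wells to nuclei in vehicle wells, taken as the median of duplicate plates.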

Compound in the assay “GW-2580 + Palbociclib”: COC1=CC=C(C=C1)COC2=C(C=C(C=C2)CC3=CN=C(N=C3N)N)OC [GW-2580] + CC(=O)c1c(C)c2cnc(Nc3ccc(N4CCNCC4)cn3)nc2n(C2CCCC2)c1=O [Palbociclib] (partner 0.5 µM)
Put shortly: as §1

Compound in the assay “GW-2580 + Luminespib”: COC1=CC=C(C=C1)COC2=C(C=C(C=C2)CC3=CN=C(N=C3N)N)OC [GW-2580] + CCNC(=O)c1noc(-c2cc(C(C)C)c(O)cc2O)c1-c1ccc(CN2CCOCC2)cc1 [Luminespib] (partner 0.01 µM)
Summed up: as §1

Compound in the assay “Fedratinib + Lapatinib”: Cc1cnc(Nc2ccc(OCCN3CCCC3)cc2)nc1Nc1cccc(S(=O)(=O)NC(C)(C)C)c1 [Fedratinib] + CS(=O)(=O)CCNCc1ccc(-c2ccc3ncnc(Nc4ccc(OCc5cccc(F)c5)c(Cl)c4)c3c2)o1 [Lapatinib] (partner 2 µM)
Put shortly: as §1

Compound in the assay “Fedratinib + Vorinostat”: Cc1cnc(Nc2ccc(OCCN3CCCC3)cc2)nc1Nc1cccc(S(=O)(=O)NC(C)(C)C)c1 [Fedratinib] + O=C(CCCCCCC(=O)Nc1ccccc1)NO [Vorinostat] (partner 1 µM)
Put shortly: as §1

As for UMC-11, the relative viability with GW-2580 + Pictilisib (first compound 0.08 µM) is 0.828; with GW-2580 + Pictilisib (first compound 0.8 µM), 1.01; with GW-2580 + Pictilisib (first compound 2.53 µM), 0.695; in the assay with GW-2580 + Pictilisib (first compound 8 µM), 0.823; with GW-2580 + Palbociclib (first compound 0.08 µM), 0.329; in the assay with GW-2580 + Palbociclib (first compound 0.8 µM) it was 0.352. Besides, the relative viability with GW-2580 + Palbociclib (first compound 8 µM) came to 0.348; with GW-2580 + Luminespib (first compound 0.08 µM), 0.992; with GW-2580 + Luminespib (first compound 0.8 µM) it was 1.1; with GW-2580 + Luminespib (first compound 2.53 µM) it was 1.12; with GW-2580 + Luminespib (first compound 8 µM) it was 1.16; with Fedratinib + Lapatinib (first compound 0.1 µM) it was 0.825. Further, the relative viability with Fedratinib + Lapatinib (first compound 0.3162 µM) is 1.08; with Fedratinib + Lapatinib (first compound 1 µM), 0.284; with Fedratinib + Vorinostat (first compound 0.1 µM), 0.377; with Fedratinib + Vorinostat (first compound 0.3162 µM) it was 0.357; with Fedratinib + Vorinostat (first compound 1 µM) it was 0.241.
